# From patent US9512128B2 (BAYER CROPSCIENCE AG, priority 2012, dated 2016)
# Like-named read-outs stand apart in the source and are kept apart here.
# Key:
# [1] = log P by HPLC on reversed-phase columns (C 18), EEC directive 79/831 Annex V.A8; assay type: physicochemical; settings: for logP[a]: method [a]; for logP[b]: method [b]; for chromatographic logP: reversed-phase C18 HPLC column
# Method in brief: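 Measured by reversed-phase C18 HPLC (LC-MS) with a linear 10→95% acetonitrile gradient. Acidic: pH 2.7, 0.1% formic acid. Neutral: pH 7.8, 0.001 M ammonium bicarbonate.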
# [2] = test system: larvae of the mustard beetle (Phaedon cochleariae); test: Phaedon cochleariae spray test (PHAECO); assay type: in vivo; settings: application rate 500 g/ha, after 7 days, Chinese cabbage leaf discs
# Protocol: 2. Phaedon cochleariae Spray Test (PHAECO)
# (§1) • Solvents: 78.0 parts by weight of acetone • 1.5 part by weight of dimethylformamide • Emulsifier: 0.5 part by weight of alkylaryl polyglycol ether
# (§2) To produce a suitable preparation of active compound, 1 part by weight of active compound is mixed with the stated amounts of solvents and emulsifier, and the concentrate is diluted with emulsifier-containing water to the desired concentration.
# After 7 days, the efficacy in % is determined. 100% means that all of the beetle larvae have been killed; 0% means that none of the beetle larvae have been killed.
# [3] = test system: greenhouse red spider mite (Tetranychus urticae); test: Tetranychus urticae spray test, OP-resistant (TETRUR); assay type: in vivo; settings: application rate 500 g/ha, after 6 days, bean leaf discs
# Protocol: 4. Tetranychus urticae Spray Test, OP-Resistant (TETRUR)
# as §1, §2
# Discs of bean leaves (Phaseolus vulgaris) which are infested by all stages of the greenhouse red spider mite (Tetranychus urticae) are sprayed with an active compound preparation of the desired concentration.
# After 6 days, the efficacy in % is determined. 100% means that all of the spider mites have been killed; 0% means that none of the spider mites have been killed.
# [4] = test system: southern root-knot nematode (Meloidogyne incognita); test: Meloidogyne incognita test (MELGIN); assay type: in vivo; settings: application rate 20 ppm, after 14 days, lettuce
# Protocol: 5. Meloidogyne incognita Test (MELGIN) • Solvent: 125.0 parts by weight of acetone To prepare a suitable active compound preparation, 1 part by weight of active compound is mixed with the stated amount of solvent and the concentrate is diluted with water to the desired concentration. Vessels are filled with sand, active compound solution, an egg/larvae suspension of the southern root-knot nematode (Meloidogyne incognita) and lettuce seeds. The lettuce seeds germinate and the plants develop. On the roots, galls are formed. After 14 days, the nematicidal effect in % is determined by the formation of galls. 100% means that no galls have been found; 0% means that the number of galls on the treated plants corresponds to the untreated control.
Structure (SMILES),logP[a] [1],logP[b] [1],"chromatographic logP ([1]; pH 2.7, acidic range, pH 2.7, 0.1% aqueous formic acid / acetonitrile, read-out: log P[a])","chromatographic logP ([1]; pH 2.7, method [a], read-out: logP[a])","chromatographic logP ([1]; pH 7.8, method [b], read-out: logP[b])","chromatographic logP ([1]; pH 7.8, neutral range, pH 7.8, 0.001 molar aqueous ammonium bicarbonate / acetonitrile, read-out: log P[b])",efficacy in % (beetle larvae killed) [2] [%],efficacy in % (spider mites killed) [3] [%],nematicidal effect in % (formation of galls) [4] [%]
Cc1cc(F)c(-n2cnc3nsc(C(C)(C)C)c3c2=O)cc1SCC(F)(F)F [Compound 191],–,–,–,–,–,–,100,100,–
Cc1cc(F)c(-n2cnc3ncsc3c2=O)cc1SCC(F)(F)F [Compound 78],2.51,2.48,–,–,–,–,–,90,90
Cc1nc2c(=O)n(-c3cc([S+]([O-])CC(F)(F)F)c(C)cc3C)cnc2s1 (centres unmarked) [Compound 75],1.84,1.81,–,–,–,–,–,90,80
Cc1ccc(-n2cnc3nn(C)c(C)c3c2=O)cc1[S+]([O-])CC(F)(F)F (centres unmarked) [Compound 47],1.54,1.51,–,–,–,–,–,90,80
Cc1nn(C)c2ncn(-c3ccc(Cl)c([S+]([O-])CC(F)(F)F)c3)c(=O)c12 (centres unmarked) [Compound 37],2.01,1.98,–,–,–,–,–,90,80
CC(C)(C)c1snc2ncn(-c3ccc(Cl)c([S+]([O-])CC(F)(F)F)c3)c(=O)c12 (centres unmarked) [Compound 118],3.14,3.08,–,–,–,–,–,90,90
CCc1nsc2ncn(-c3cc(SCC(F)(F)F)c(C)cc3F)c(=O)c12 [Compound 201],–,–,–,–,–,–,100,90,–
Cc1cc(F)c(-n2nnc3c(C)nsc3c2=O)cc1[S+]([O-])CC(F)(F)F (centres unmarked) [Compound 183],–,–,–,–,–,–,100,90,–

# Further lines, with some results ahead:
logP[a] [1],logP[b] [1],"chromatographic logP ([1]; pH 2.7, acidic range, pH 2.7, 0.1% aqueous formic acid / acetonitrile, read-out: log P[a])","chromatographic logP ([1]; pH 2.7, method [a], read-out: logP[a])","chromatographic logP ([1]; pH 7.8, method [b], read-out: logP[b])","chromatographic logP ([1]; pH 7.8, neutral range, pH 7.8, 0.001 molar aqueous ammonium bicarbonate / acetonitrile, read-out: log P[b])",Structure (SMILES),efficacy in % (beetle larvae killed) [2] [%],efficacy in % (spider mites killed) [3] [%],nematicidal effect in % (formation of galls) [4] [%]
1.79,1.75,–,–,–,–,N#Cc1ccc(-n2cnc3ccsc3c2=O)cc1[S+]([O-])CC(F)(F)F (centres unmarked) [Compound 105],100,–,–
–,–,1.94,1.94,1.93,1.93,"Cc1ccc(-n2cnc3sccc3c2=O)cc1[S+]([O-])CC(F)(F)F (centres unmarked) [Compound 86, 3-{4-Methyl-3-[(2,2,2-trifluoroethyl)sulphinyl]phenyl}thieno[2,3-d]pyrimidin-4(3H)-one]",–,90,90
2.07,2.03,–,–,–,–,O=c1c2sccc2ncn1-c1ccc(Cl)c([S+]([O-])CC(F)(F)F)c1 (centres unmarked) [Compound 106],83,–,–
2.70,2.67,–,–,–,–,N#Cc1cc(F)c(-n2cnc3sccc3c2=O)cc1SCC(F)(F)F [Compound 82],100,–,–
2.07,2.00,–,–,–,–,N#Cc1ccc(-n2cnc3sccc3c2=O)cc1[S+]([O-])CC(F)(F)F (centres unmarked) [Compound 88],100,–,–
2.30,2.24,–,–,–,–,Cc1nn(C)c2ncn(-c3ccc(C#N)c(SCC(F)(F)F)c3)c(=O)c12 [Compound 34],100,–,–
1.89,1.87,–,–,–,–,N#Cc1ccc(-n2cnc3sccc3c2=O)cc1[S+]([O-])CC(F)(F)F (centres unmarked) [Compound 95],100,–,–
1.52,1.50,–,–,–,–,Cc1c2c(=O)n(-c3ccc(C#N)c([S+]([O-])CC(F)(F)F)c3)cnc2nn1C (racemic) [Compound 51],100,–,–
2.54,2.52,–,–,–,–,Cc1cc(F)c(-n2cnc3scnc3c2=O)cc1SCC(F)(F)F [Compound 60],100,–,–
